The values that follow come from patent US10077261B2, “Imidazolin-5-one derivative useful as FASN inhibitors for the treatment of cancer” (Janssen Pharmaceutica NV, priority 2012, dated 2018).

The subject of test [1] is PC-3M-Luc-C6 prostate cells. In words: In vitro PC-3M-Luc-C6 prostate cell proliferation assay in lipid reduced medium. The class given is cell-based. The note with it: 96 h, read-out: pIC50 PC-3M-Luc-C6 prostate cell (converted). The procedure: PC-3M-Luc-C6 prostate cells were obtained from Xenogen Corporation. Cells were maintained in MEM supplemented with 10% Fetal Calf Serum (FCS, Hyclone), 2 mM glutamine, 1 mM sodium pyruvate, 1% BME vitamins (available from for example, Sigma Aldrich), 0.1 mM non Essential Amino Acid and 50 μg/ml Gentamicin. The cells were passaged twice a week.
The next day 10 μl test compound/DMSO diluted in medium was added (3E-5M, 1E-5M, 3E-6M, 1E-6M, 3E-7M, 1E-7M, 3E-8M, 1E-8M final concentration). Compounds were tested in duplicate. After 96 h incubation at 37° C., 5% CO2 25 μl ATP-glow mix was added. The plate was incubated for 30 min at 37° C. and luminescence was measured with the Envision.
Analysis: Determination of pIC50 Values
pIC50 values were calculated as follows.
where mLC and mHC are the means of the low control wells and high control wells on the plate, after manual exclusion of outliers. The relation between the % Controlmin values and concentration was fitted to a 4-parameter logistic curve using a non-linear least squares regression method to determine the pIC50 value. Outlying data points were excluded manually to get a correct fit. The pIC50 corresponds to −log 10(IC50), if the IC50 is expressed in molar units (http://www.ncbi.nlm.nih.gov/books/NBK91994). The IC50 parameter was always determined by non-linear regression, but one or more of the other parameters may have been held fixed on a relevant input value, such as 0 for the bottom values.

Test [2] deals with Fatty Acid Synthase Keto-reductase Domain (FASN KR) (Homo sapiens, UniProt P49327). The test can be described thus: Fatty Acid Synthase keto-reductase domain (FASN KR) inhibition, NADPH oxidation at 340 nm.
Description: After 20 minutes incubation at room temperature the plate was measured again (T2).
The decrease in absorbance was calculated as (Absorbance before incubation T1)−(Absorbance following incubation T2).
A plot of Controlmin versus test compound concentration was fitted to a 4-parameter logistic curve using a non-linear least squares regression method.
The subject of test [3] is A2780 ovarian cells. The test can be described thus: A2780 ovarian cell proliferation assay in lipid reduced medium, without palmitate (MTT). The following applies: Homo sapiens, A2780, 96 h; read-out: pIC50 A2780 Ovarian Cell, Without Palmitate (converted). The class given is cell-based.
For test [4], the target named is T1, hFASN enzyme (full length) (Homo sapiens, UniProt P49327).
T1 construct: 10 μL hFASN enzyme (full length, 300 ng, purified in house); made in house
In words: Fatty Acid Synthase (FASN) inhibition scintillation proximity assay. The test is classed as biochemical. The following applies: for inhibition at 10 µM: read-out: Human FASN % inhibition @ 10 μM, 10 μM test compound; for IC50: read-out: Human FASN pIC50 (converted). The method in brief:
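Purified full-length hFASN (300 ng) converts ^3H-acetyl-CoA plus malonyl-CoA to ^3H-palmitate in 100 mM KH2PO4 pH 7.5, 1 mM DTT; compounds tested at 0.01–30 μM. Product captured on streptavidin imaging beads and read by LEADseeker at 610 nm after ≥24 h; 4-parameter logistic fit versus controls.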
On the technique in general: SPA uses beads or plates that emit light when radiolabelled molecules are held near them.

Test [5] concerns A2780 ovarian cells. In words: A2780 ovarian cell proliferation assay in lipid reduced medium, with palmitate (MTT). The class given is cell-based. The following applies: Homo sapiens, A2780, 96 h; read-out: pIC50 A2780 Ovarian Cell, With Palmitate (converted). An outline of the steps:
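Seeded cells were switched next day to lipid-reduced serum, exposed to compound and 25 μM palmitate complexed with fatty-acid-free BSA, and incubated 96 h. Proliferation was then determined by MTT absorbance at 544 nm, with a best-fit curve of signal against concentration.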

The test system of test [6] is LNCaP-Vancouver prostate cells. In words: In vitro LNCaP Vancouver prostate cell proliferation assay in lipid reduced medium. The following applies: read-out: pIC50 LNCaP_Vancouver prostate cell (converted). The class given is cell-based.

Chain of Fatty Acid Synthase Keto-reductase Domain (FASN KR) (P49327 whole entry, the tested form may be a part): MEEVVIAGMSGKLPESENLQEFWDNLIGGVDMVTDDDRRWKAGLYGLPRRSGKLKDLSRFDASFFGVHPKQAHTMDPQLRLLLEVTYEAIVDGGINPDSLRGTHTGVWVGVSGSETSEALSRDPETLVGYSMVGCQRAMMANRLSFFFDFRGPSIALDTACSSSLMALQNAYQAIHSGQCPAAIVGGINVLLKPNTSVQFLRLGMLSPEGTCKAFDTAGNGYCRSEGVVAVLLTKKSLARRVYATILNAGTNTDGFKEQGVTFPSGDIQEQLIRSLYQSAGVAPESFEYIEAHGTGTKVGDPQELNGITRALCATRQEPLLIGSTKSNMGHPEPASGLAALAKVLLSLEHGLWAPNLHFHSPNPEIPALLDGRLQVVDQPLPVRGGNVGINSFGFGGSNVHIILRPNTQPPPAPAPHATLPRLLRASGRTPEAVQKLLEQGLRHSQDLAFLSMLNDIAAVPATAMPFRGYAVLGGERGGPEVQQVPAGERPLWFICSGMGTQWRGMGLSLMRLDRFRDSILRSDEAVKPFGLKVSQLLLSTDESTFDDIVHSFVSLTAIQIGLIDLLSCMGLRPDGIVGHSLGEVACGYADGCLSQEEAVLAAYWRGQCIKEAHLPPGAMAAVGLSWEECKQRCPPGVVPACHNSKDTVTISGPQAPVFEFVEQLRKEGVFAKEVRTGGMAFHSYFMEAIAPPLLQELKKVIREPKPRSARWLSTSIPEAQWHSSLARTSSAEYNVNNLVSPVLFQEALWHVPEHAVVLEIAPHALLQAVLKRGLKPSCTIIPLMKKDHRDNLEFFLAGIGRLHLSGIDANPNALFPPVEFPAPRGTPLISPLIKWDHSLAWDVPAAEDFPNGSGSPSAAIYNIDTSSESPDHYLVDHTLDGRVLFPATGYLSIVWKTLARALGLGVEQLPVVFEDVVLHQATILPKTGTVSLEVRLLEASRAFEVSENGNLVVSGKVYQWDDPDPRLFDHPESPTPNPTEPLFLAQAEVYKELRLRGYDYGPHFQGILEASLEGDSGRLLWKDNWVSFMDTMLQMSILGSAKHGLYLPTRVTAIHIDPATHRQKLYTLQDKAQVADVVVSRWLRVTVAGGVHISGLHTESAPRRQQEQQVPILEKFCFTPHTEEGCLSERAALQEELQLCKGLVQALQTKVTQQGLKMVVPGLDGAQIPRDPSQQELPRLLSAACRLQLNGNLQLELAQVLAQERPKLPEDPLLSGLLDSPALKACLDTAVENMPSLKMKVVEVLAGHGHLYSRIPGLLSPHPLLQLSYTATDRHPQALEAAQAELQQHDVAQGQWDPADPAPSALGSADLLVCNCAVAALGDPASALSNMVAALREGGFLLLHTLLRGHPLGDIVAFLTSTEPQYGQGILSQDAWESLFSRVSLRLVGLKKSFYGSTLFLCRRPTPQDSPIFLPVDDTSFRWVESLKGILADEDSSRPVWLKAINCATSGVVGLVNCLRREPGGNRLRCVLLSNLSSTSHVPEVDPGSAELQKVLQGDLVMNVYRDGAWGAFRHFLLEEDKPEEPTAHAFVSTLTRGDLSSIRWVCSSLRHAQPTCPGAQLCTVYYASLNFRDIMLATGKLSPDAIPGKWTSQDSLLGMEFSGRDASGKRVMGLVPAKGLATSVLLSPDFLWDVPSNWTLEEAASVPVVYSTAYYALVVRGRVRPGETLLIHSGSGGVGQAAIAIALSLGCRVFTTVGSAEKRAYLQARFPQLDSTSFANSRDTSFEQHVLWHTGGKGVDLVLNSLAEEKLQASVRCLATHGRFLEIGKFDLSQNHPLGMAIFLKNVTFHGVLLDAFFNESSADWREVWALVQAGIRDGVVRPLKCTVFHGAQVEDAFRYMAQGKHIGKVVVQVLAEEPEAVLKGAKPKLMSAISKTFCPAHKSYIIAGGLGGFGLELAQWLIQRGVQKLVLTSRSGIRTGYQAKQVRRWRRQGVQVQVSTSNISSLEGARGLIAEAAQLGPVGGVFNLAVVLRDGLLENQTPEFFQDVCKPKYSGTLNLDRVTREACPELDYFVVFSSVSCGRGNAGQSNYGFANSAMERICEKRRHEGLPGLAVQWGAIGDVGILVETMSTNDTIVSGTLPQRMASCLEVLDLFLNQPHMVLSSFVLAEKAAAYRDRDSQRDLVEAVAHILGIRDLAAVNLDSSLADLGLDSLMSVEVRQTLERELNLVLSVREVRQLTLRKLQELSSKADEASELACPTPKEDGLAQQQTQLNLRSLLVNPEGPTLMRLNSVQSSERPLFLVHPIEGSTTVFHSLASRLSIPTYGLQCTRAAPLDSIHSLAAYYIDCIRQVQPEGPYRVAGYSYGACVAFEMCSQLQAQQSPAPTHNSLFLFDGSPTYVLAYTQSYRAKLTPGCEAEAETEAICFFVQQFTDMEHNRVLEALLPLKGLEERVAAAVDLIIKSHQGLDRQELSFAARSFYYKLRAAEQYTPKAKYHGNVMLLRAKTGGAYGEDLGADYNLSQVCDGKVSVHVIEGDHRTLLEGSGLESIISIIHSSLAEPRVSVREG
T1 sequence (P49327 whole entry): as the sequence (P49327 whole entry, the tested form may be a part) above

In the case of `O=C(C1CC1)N1CC[C@@H](CN2C(=O)C3(CCCC3)N=C2c2ccc(-c3ccc4occc4c3)cc2)C1` [compound 2, 2-[4-(1-Benzofuran-5-yl)phenyl]-3-{[(3R)-1-(cyclopropylcarbonyl)pyrrolidin-3-yl]methyl-}3-diazaspiro[4.4]non-1-en-4-one], the IC50 was roughly 0.661 µM in test [1]; 0.0891 µM in test [2]; 0.977 µM in test [3]; 0.0457 µM in test [4]; greater than 10 µM in test [5]. Moreover, the inhibition at 10 µM in test [4] stood at 109%.

For the molecule `Cc1cc2cc(-c3ccc(C4=NC5(CC5)C(=O)N4CC4CN(C(=O)C5CC5)C4)c(C)c3)ccc2[nH]1` [compound 263, 6-((1-(cyclopropanecarbonyl)azetidin-3-yl)methyl)-5-(2-methyl-4-(2-methyl-1H-indol-5-yl)phenyl)-4,6-diazaspiro[2.4]hept-4-en-7-one], the IC50 in test [1] is 0.112 µM; in test [2], 0.251 µM; in test [3], 0.12 µM; in test [4], 0.0513 µM; in test [5] it was greater than 10 µM. Besides, in test [4], the inhibition at 10 µM came out at 105%.

In the case of `O=C(C1CC1)N1CC[C@@H](CN2C(=O)C3(CC3)N=C2c2ccc(-c3cccc(NS(=O)(=O)C4CC4)c3)cc2F)C1` [compound 318], the IC50 in test [1] was 0.0525 µM; in test [2] it was 0.123 µM; in test [3] it was roughly 0.0708 µM; in test [4], 0.0661 µM; in test [5], greater than 10 µM. Also, in test [4], the inhibition at 10 µM is 100%.

With `Cn1ncc2cc(-c3ccc(C4=NC5(CC5)C(=O)N4C[C@@H]4CCN(C(=O)C5CC5)C4)cc3F)ccc21` [compound 405, 6-{[(3R)-1-(Cyclopropylcarbonyl)pyrrolidin-3-yl]methyl}-5-[3-fluoro-4-(1-methyl-1H-indazol-5-yl)phenyl]-4,6-diazaspiro[2.4]hept-4-en-7-one], the IC50 in test [1] is 0.457 µM; in test [3], 0.479 µM; in test [5] it was greater than 10 µM.

For the molecule `O=C(C1CC1)N1CC(CN2C(=O)C3(CC3)N=C2c2ccc(-c3ccc4cc[nH]c4c3)c(F)c2)C1` [compound 442, 6-{[1-(Cyclopropylcarbonyl)azetidin-3-yl]methyl}-5-[3-fluoro-4-(1H-indol-6-yl)phenyl]-4,6-diazaspiro[2.4]hept-4-en-7-one], the IC50 in test [1] is 0.513 µM; in test [2], 0.339 µM; in test [3], 0.257 µM; in test [4], 0.2 µM; in test [5] it was greater than 10 µM. The inhibition at 10 µM in test [4] is 94%.

In the case of `O=C(C1CC1)N1CC(CN2C(=O)C3(CC3)N=C2c2ccc(-c3cccc4[nH]ncc34)c(F)c2)C1` [compound 443, 6-{[1-(Cyclopropylcarbonyl)azetidin-3-yl]methyl}-5-[3-fluoro-4-(1H-indazol-4-yl)phenyl]-4,6-diazaspiro[2.4]hept-4-en-7-one], the IC50 in test [1] is 0.851 µM; in test [2], 1.05 µM; in test [3], 0.794 µM; in test [4], 0.912 µM; in test [5], greater than 10 µM. The inhibition at 10 µM in test [4] is 88%.

For `Cc1cc(-c2ccc3c(cnn3C)c2)ccc1C1=NC2(CC2)C(=O)N1CC1CN(C(=O)C2(O)CC2)C1` [compound 498, 6-({1-[(1-Hydroxycyclopropyl)carbonyl]-azetidin-3-yl}methyl)-5-[2-methyl-4-(1-methyl-1H-indazol-5-yl)phenyl]-4,6-diazaspiro[2.4]hept-4-en-7-one], the IC50 in test [1] is 0.234 µM. In addition, the inhibition at 10 µM in test [4] is 99%.

As to `Cc1cc(-c2ccc3c(cnn3C)c2)ccc1C1=NC2(CC2)C(=O)N1CC1CN(C(=O)C(C)(C)CO)C1` [compound 546, 6-{[1-(3-Hydroxy-2,2-dimethylpropanoyl)azetidin-3-yl]methyl}-5-[2-methyl-4-(1-methyl-1H-indazol-5-yl)phenyl]-4,6-diazaspiro[2.4]hept-4-en-7-one], the IC50 was roughly 0.309 µM in test [1]; 0.603 µM in test [2]; roughly 0.195 µM in test [3]; 0.204 µM in test [4]; greater than 10 µM in test [5]. Further, in test [4], the inhibition at 10 µM was 100%.

`Cc1cc(-c2ccc3cc(OC(C)C)ccc3c2)ccc1C1=NC2(CC2)C(=O)N1CC1CN(C(=O)C2(C)CC2)C1` [compound 581, 6-({1-[(1-Methylcyclopropyl)carbonyl]azetidin-3-yl}methyl)-5-{2-methyl-4-[6-(1-methylethoxy)naphthalen-2-yl]phenyl}-4,6-diazaspiro[2.4]hept-4-en-7-one]: the IC50 in test [1] was roughly 0.295 µM; in test [2] it was 0.631 µM; in test [3], roughly 0.2 µM; in test [4], 0.316 µM; in test [5], 4.27 µM. Also, the inhibition at 10 µM in test [4] was found to be 93%.

For `O=C(Nc1cccc(-c2ccc(C3=NC4(CC4)C(=O)N3C[C@@H]3CCN(C(=O)C4CC4)C3)c(F)c2)c1)C1CC1` [compound 585, N-[4′-(6-{[(3R)-1-(Cyclopropylcarbonyl)pyrrolidin-3-yl]methyl}-7-oxo-4,6-diazaspiro[2.4]hept-4-en-5-yl)-3′-fluorobiphenyl-3-yl]cyclopropanecarboxamide], the IC50 in test [1] was 0.1 µM; in test [2], 0.162 µM; in test [3] it was 0.0832 µM; in test [4] it was 0.112 µM; in test [5], greater than 10 µM. Besides, the inhibition at 10 µM in test [4] was determined as 99%.

For `Cc1cc(-c2ccc3c(c2)c(CO)nn3C)ccc1C1=NC2(CC2)C(=O)N1CC1CN(C(=O)C2CC2)C1` [compound 586, 6-{[1-(Cyclopropylcarbonyl)azetidin-3-yl]methyl}-5-{4-[3-(hydroxymethyl)-1-methyl-1H-indazol-5-yl]-2-methylphenyl}-4,6-diazaspiro[2.4]hept-4-en-7-one], the IC50 was 1.02 µM in test [1]; 1.66 µM in test [2]; roughly 0.851 µM in test [3]; 0.525 µM in test [4]; greater than 10 µM in test [5]. Besides, the inhibition at 10 µM in test [4] worked out at 93%.

`O=C(C1CC1)N1CC[C@@H](CN2C(=O)C3(CCN(C(=O)C(F)(F)F)CC3)N=C2c2ccc(-c3ccc4[nH]ccc4c3)cc2)C1` [compound 751, 3-{[(3R)-1-(Cyclopropylcarbonyl)pyrrolidin-3-yl]methyl}-2-[4-(1H-indol-5-yl)phenyl]-8-(trifluoroacetyl)-1,3,8-triazaspiro[4.5]dec-1-en-4-one]: the IC50 was 0.166 µM in test [2]; 0.724 µM in test [6]; 0.0891 µM in test [3]; 0.135 µM in test [4]; greater than 10 µM in test [5]. Also, the inhibition at 10 µM in test [4] stood at 98%.

Regarding `O=C(C1CC1)N1CC[C@@H](CN2C(=O)C3(CCCC3)N=C2c2ccc(-c3cnc4[nH]ccc4c3)cc2F)C1` [compound 881, (R)-3-((1-(cyclopropanecarbonyl)pyrrolidin-3-yl)methyl)-2-(2-fluoro-4-(1H-pyrrolo[2,3-b]pyridin-5-yl)phenyl)-1,3-diazaspiro[4.4]non-1-en-4-one], the IC50 was 0.316 µM in test [2]; 1.32 µM in test [6]; 0.24 µM in test [3]; 0.107 µM in test [4]; greater than 10 µM in test [5]. The inhibition at 10 µM in test [4] is 101%.

Broadly, the inhibition is the relative decrease from the control value, in per cent.
